Assay results published in publication PMC11544189 (Acta Pharmaceutica Sinica. B, 2024).

System: σ1 receptor
Test: σ[…] protein/BiP dissociation assay
Type: cell-based

CSC(=S)NCCNC(=O)CCC(=O)Nc1cccc2ccccc12 [Amylovis-201, Methyl (2-{[4-(1-naphthylamino)-4-oxobutanoyl]amino}ethyl)dithiocarbamate]
IC50: 362 nM
